Test results taken from paper PMC1448180, “Small-molecule and mutational analysis of allosteric Eg5 inhibition by monastrol” (BMC Chemical Biology, 2006).
Residue numbers refer to the chain shown, from its start. Read-outs that look alike come from different tables or passages of the source.

Key:
hEg5-367H = target: T1, hEg5-367H (Homo sapiens, UniProt P52732); test: ATP hydrolysis by recombinant human Eg5 motor domain (NADH-enzyme coupled assay); assay type: biochemical; conditions: for Activity as Eg5 inhibitor, in words: authors' assays
T1 construct: motor domain (amino acid residues 1–367) of human Eg5; His6 (C); made in house
T1 sequence (P52732 1-367): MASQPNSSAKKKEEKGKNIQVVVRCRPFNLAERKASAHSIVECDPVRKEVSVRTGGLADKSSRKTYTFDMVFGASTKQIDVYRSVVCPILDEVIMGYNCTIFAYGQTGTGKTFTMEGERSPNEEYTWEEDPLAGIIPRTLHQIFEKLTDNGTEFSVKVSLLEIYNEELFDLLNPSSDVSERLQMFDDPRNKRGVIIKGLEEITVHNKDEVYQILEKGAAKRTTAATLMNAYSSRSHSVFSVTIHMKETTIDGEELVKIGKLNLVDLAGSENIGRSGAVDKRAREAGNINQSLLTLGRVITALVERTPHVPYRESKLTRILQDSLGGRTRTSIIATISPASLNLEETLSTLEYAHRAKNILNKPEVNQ
Experimental: (§1) Figure 2 Structure-activity relationship of monastrol derivatives. (A) Scheme depicting the Biginelli condensation, a one-pot reaction for preparing monastrol derivatives. […] Each data point is the average of three independent experiments. […] Each cell-based assay was performed in duplicate.
We used a modified PCR mutagenesis protocol to introduce mutations into hEg5-367H, a plasmid encoding the C-terminally His6-tagged motor domain (amino acid residues 1–367) of human Eg5. The wild-type and mutant proteins were expressed and purified using Ni-NTA affinity chromatography and concentrated to between 3 and 10 mg/ml protein as described.
(§2) ATP hydrolysis by recombinantly expressed kinesin motor domains was measured using an NADH-enzyme coupled assay. ATP hydrolysis was measured in KC25 buffer supplemented with 5 μM taxol, 1 mM ATP-KOH (pH 7.0), the appropriate concentration of motor domain, and the appropriate concentrations of taxol-polymerized microtubules.

Klp61F-364H = target: T2, Klp61F-364H (Drosophila melanogaster, UniProt P46863); test: ATP hydrolysis by Klp-61F motor domain (NADH-enzyme coupled assay); assay type: biochemical, D. melanogaster
T2 construct: His6 (C); made in house; host or cells: vector pRSETa
T2 sequence (P46863 1-364): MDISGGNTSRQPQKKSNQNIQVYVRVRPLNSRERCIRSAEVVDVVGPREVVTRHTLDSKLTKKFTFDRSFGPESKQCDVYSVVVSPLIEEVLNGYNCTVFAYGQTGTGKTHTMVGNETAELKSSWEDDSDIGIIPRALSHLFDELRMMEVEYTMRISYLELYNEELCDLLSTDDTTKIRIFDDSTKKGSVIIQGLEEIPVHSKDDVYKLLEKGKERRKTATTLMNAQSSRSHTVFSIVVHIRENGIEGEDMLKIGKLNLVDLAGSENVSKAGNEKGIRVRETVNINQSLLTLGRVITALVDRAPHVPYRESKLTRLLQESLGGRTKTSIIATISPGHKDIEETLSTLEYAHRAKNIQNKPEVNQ
Experimental: Each data point is the average of three independent experiments.
as §2

BS-C-1 cells = test: Monoaster formation in tissue culture cells (manual count of mitotic cells); assay type: cell-based, green monkey; conditions: Chlorocebus sabaeus, read-out: Cells: monoaster formation score (drug concentration with roughly equal monastral and bipolar spindles)
Experimental: as §1
Conditions for growing the following cell lines are as described: D. rerio AB9 (37), D. melanogaster KC167 [38], and BS-C-1 green monkey kidney cells. For immunofluorescence microscopy, cells were grown on 12 mm circular coverslips to 30 % confluence, treated medium supplemented with drug and 0.2% DMSO, or a DMSO alone, for 6 hours, fixed with formaldehyde, and stained for DNA and microtubules, as described. D. melanogaster KC167 cells were cultured in Schneider's Drosophila Medium (GIBCO) whereas D. rerio AB9 cells and BS-C-1 green monkey kidney cells were cultured at 37°C in Dulbecco's Minimal medium in the presence of 10 % heat inactivated fetal calf serum.

hEg5-367H (L214T) = target: T3, hEg5-367H (L214T) (Homo sapiens, UniProt P52732, L214T); test: ATP hydrolysis by Eg5 motor domain mutant L214T; assay type: biochemical; conditions: data not shown
T3 construct: motor domain (amino acid residues 1–367) of human Eg5; His6 (C); made in house
T3 sequence (P52732 1-367 L214T): T1 sequence (P52732 1-367) with L214T
Text: Figure 4 Mutagenesis of the monastrol binding site in human Eg5. (A) Design of mutations in the human Eg5 motor domain. Amino acid side chains that are not conserved between Eg5 and conventional kinesin were targeted, either introducing chimeric or rationally designed mutations (asterix for targeted point mutants) to test the contribution of residues to the drug-sensitivity of Eg5. (B) Steady-state enzymatic parameters for engineered human Eg5 motor domain mutants. Steady-state ATP hydrolysis by Eg5 was measured using an NADH-enzyme coupled assay varying the concentration of ATP, microtubules, or monastrol to obtain the microtubule concentration for half-maximal stimulation (K0.5MT), the maximal rate of microtubule-stimulated ATP hydrolysis (kcat), and the concentration of monastrol that inhibits basal ATP hydrolysis by 50 % (IC50), as described.
We used a modified PCR mutagenesis protocol to introduce mutations into hEg5-367H, a plasmid encoding the C-terminally His6-tagged motor domain (amino acid residues 1–367) of human Eg5. […]
as §2

Eg5 = conditions: cited from earlier work
[1] = 500 nM hEg5-367H, KC25 buffer, 1 mM ATP-KOH (pH 7.0), 1 μM taxol-stabilized microtubules
[2] = BSC-1, BS-C-1 cells, 6 hours treatment, duplicate
[3] = 500 nM hEg5-367H, KC25 buffer, 1 mM ATP-KOH (pH 7.0), 1 μM taxol-stabilized microtubules, read-out: IC50 (μM), inhibition of ATP hydrolysis by Eg5 motor domain

| SMILES | IC50 (hEg5-367H) | EC50 (BS-C-1 cells; BSC-1, 6 h) | IC50 (μM), inhibition of ATP hydrolysis by Eg5 motor domain (hEg5-367H; [1]) | other results |
| --- | --- | --- | --- | --- |
| CCOC(=O)C1=C(C)NC(=S)N[C@H]1c1cccc(O)c1 [(S)-monastrol, reference compound] | 6.1 ± 0.7 µM | – | – | IC50 (Klp61F-364H): 230 ± 4 µM |
| CCOC(=O)C1=C(C)N(C)C(=S)NC1c1cccc(O)c1 (centres unmarked) [Derivative 1, ethyl 6-methyl-4-(3-hydroxyphenyl)-2-thioxo-1-methyl-1,2,3,4-tetrahydropyrimidine-5-carboxylate] | 3.3 µM | < 50 µM | – | – |
| CCOC(=O)C1=C(C)NC(=O)NC1c1cccc(O)c1 (centres unmarked) [Derivative 2, ethyl 6-methyl-4-(3-hydroxyphenyl)-2-oxo-1,2,3,4-tetrahydropyrimidine-5-carboxylate] | – | – | Not Inhib. | Activity as Eg5 inhibitor, in words (hEg5-367H): completely inactive; EC50 (BS-C-1 cells; [2]): > 200 µM; Drug sensitivity of L214T mutant, in words (hEg5-367H (L214T)): resistant |
| CCOC(=O)C1=C(C)NC(=S)NC1c1ccccc1 (centres unmarked) [Derivative 4a, ethyl 6-methyl-4-phenyl-2-thioxo-1,2,3,4-tetrahydropyrimidine-5-carboxylate] | – | – | – | IC50 (hEg5-367H; [3]): > 200 µM; EC50 (BS-C-1 cells; [2]): > 200 µM |
| CCOC(=O)C1=C(C)NC(=S)NC1c1ccc(O)cc1 (centres unmarked) [Derivative 4b] | – | > 200 µM | Not Inhib. | – |
| CCOC(=O)C1=C(C)NC(=S)NC1c1cccc(F)c1 (centres unmarked) [Derivative 4c, ethyl 6-methyl-4-(3-fluorophenyl)-2-thioxo-1,2,3,4-tetrahydropyrimidine-5-carboxylate] | – | > 200 µM | Not Inhib. | – |
| CCOC(=O)C1=C(C)NC(=S)NC1c1cccc(OC)c1 (centres unmarked) [Derivative 4d, ethyl 6-methyl-4-(3-methoxyphenyl)-2-thioxo-1,2,3,4-tetrahydropyrimidine-5-carboxylate] | – | > 200 µM | Not Inhib. | – |
| CCOC(=O)C1=C(C)NC(=S)NC1c1cccc(Br)c1 (centres unmarked) [Derivative 4e, ethyl 6-methyl-4-(3-bromophenyl)-2-thioxo-1,2,3,4-tetrahydropyrimidine-5-carboxylate] | – | – | – | Activity as Eg5 inhibitor, in words (hEg5-367H): completely inactive |
| CC(=O)C1=C(C)NC(=S)NC1c1cccc(O)c1 (centres unmarked) [Derivative 5a, methyl 6-methyl-4-(3-hydroxyphenyl)-2-thioxo-1,2,3,4-tetrahydropyrimidine-5-ketone] | 25 µM | 50 to 200 µM | – | – |
| CC1=C(C(=O)OCC(C)C)C(c2cccc(O)c2)NC(=S)N1 (centres unmarked) [Derivative 5b, isobutyl 6-methyl-4-(3-hydroxyphenyl)-2-thioxo-1,2,3,4-tetrahydropyrimidine-5-carboxylate] | – | – | – | IC50 (hEg5-367H; [3]): 3.8 µM; EC50 (BS-C-1 cells; [2]): < 50 µM |
| CC1=C(C(=O)OCc2ccccc2)C(c2cccc(O)c2)NC(=S)N1 (centres unmarked) [Derivative 5c, benzyl 6-methyl-4-(3-hydroxyphenyl)-2-thioxo-1,2,3,4-tetrahydropyrimidine-5-carboxylate] | 21 µM | 50 to 200 µM | – | – |
| CCOC(=O)C1=C(C(C)C)NC(=S)NC1c1cccc(O)c1 (centres unmarked) [Derivative 6, ethyl 6-isopropyl-4-(3-hydroxyphenyl)-2-thioxo-1,2,3,4-tetrahydropyrimidine-5-carboxylate] | – | > 200 µM | Not Inhib. | – |
| N[C@@H](CSC(c1ccccc1)(c1ccccc1)c1ccccc1)C(=O)O [S-trityl cysteine] | – | – | – | Potency relative to monastrol (Eg5): more potent than monastrol |
